Laboratory results published in patent US8003375B2, “Qualitative differential screening” (ExonHit Therapeutics S.A., priority 1998, dated 2011).

Assays:
HepG2 cells [1] = test: Cytotoxicity tests (trypan blue, MTT) and apoptosis test (Cell Death ELISA, DNA fragmentation) on HepG2 cells
Protocol: (§1) The effects of toxic compounds on RNA splicing regulation defects were tested as follows. HepG2 hepatocyte cells were treated with different doses of three toxic compounds (ethanol, camptothecin, PMA (phorbol 12-myristate 13-acetate)). Two cytotoxicity tests (trypan blue, MTT) were performed at different time points: 4 h and 18 h for ethanol; 4 h and 18 h for camptothecin; 18 h and 40 h for PMA.
(§2) Trypan blue is a dye that can be incorporated by […] cells. […] The experimental points are determined in triplicate.
(§3) The MTT test is a colorimetric test measuring the capacity of living cells to convert soluble tetrazolium salts (MTT) into an insoluble formazan precipitate. These dark blue formazan crystals can be dissolved and their concentration determined by measuring absorbance at 550 nm. Thus, after overnight seeding of 24-well dishes with 150,000 cells, followed by treatment of the cells with the toxic compounds, 50 μl of MTT (Sigma) are added (at a concentration of 5 mg/ml in PBS). The formazan crystal formation reaction is carried out for 5 h in a CO2 incubator (37° C., 5% CO2, 95% humidity). After addition of 500 μl of solubilization solution (0.1 N HCl in isopropanol-Triton X-100 (10%)), the crystals are dissolved with stirring and their absorbance is measured at 550 to 660 nm. Determinations are done in triplicate with suitable controls (viability, cell death, blanks).
(§4) A test of apoptosis or programmed cell death was also performed by measuring DNA fragmentation with an anti-histone antibody and ELISA. The Cell Death ELISA Plus from Roche was used.

bcl-X isoforms = test: RT-PCR of BCL-X isoforms in treated HepG2 cells; type: cell-based, human; conditions: 4 h, RT-PCR (FIG. 19)
Protocol: HepG2 cells were thus treated with these three concentrations of these three compounds for 4 h in the case of ethanol and camptothecin and for 18 h in the case of PMA. […] These initial strands served as templates for PCR amplification reactions (94° C. 1 min, 55° C. 1 min, 72° C. 1 min, 30 cycles) by means of the following oligonucleotide primers: [table] These primers correspond to the regions common to the different described isoforms of bcl-X (bcl-XI, bcl-Xs, BCL-Xβ) (Boise et al., (1993), Cell 74: 597-608; U72398 (Genbank)) and should amplify a single 204 base pair fragment for these three isoforms.

[2] = test system: MACH-α (Caspase-8) isoforms; test: RT-PCR of MACH-α isoforms in treated HepG2 cells; type: cell-based, human; conditions: camptothecin 1 μg/ml, 4 h, RT-PCR (FIG. 19)
Protocol: HepG2 cells were thus treated with these three concentrations of these three compounds for 4 h in the case of ethanol and camptothecin and for 18 h in the case of PMA. Messenger RNAs were purified on Dynal-Oligo-(dT) beads starting from total RNAs purified with the Rneasy kit (Quiagen). cDNA was synthesized from these messenger RNAs using Superscript reverse transcriptase (Life Technologies) and random hexamers as primers
These initial strands served as templates for PCR amplification reactions (94° C. 1 min, 55° C. 1 min, 72° C. 1 min, 30 cycles) by means of the following oligonucleotide primers: […]
These primers correspond to the regions common to the different described isoforms of MACH-α (1, 2 and 3, respectively amplifying 595, 550 and 343 base pairs). MACH-α (Caspase-8) is a protease involved in programmed cell death (Boldin et al., (1996), Cell, 85: 803-815).

[3] = Cytotoxicity tests (trypan blue, MTT) and apoptosis test (Cell Death ELISA, DNA fragmentation) on HepG2 cells; conditions: human
Protocol: as §1, §2, §3, §4

FASR isoforms = test: RT-PCR of FASR isoforms in treated HepG2 cells; type: cell-based, human; conditions: 4 h, RT-PCR (FIG. 19)
Protocol: HepG2 cells were thus treated with these three concentrations of these three compounds for 4 h in the case of ethanol and camptothecin and for 18 h in the case of PMA. […] These initial strands served as templates for PCR amplification reactions (94° C. 1 min, 55° C. 1 min, 72° C. 1 min, 30 cycles) by means of the following oligonucleotide primers: [table] These primers correspond to the regions common to certain FASR isoforms and should amplify a 478 base pair fragment for wild type form FasR, 452 base pairs for isoform Δ8 and 415 for isoform ΔTM.

HepG2 cells [4] = conditions: 0.1 M ethanol for 18 hours (FIG. 9)
Excerpt: A more complex situation was examined. […] RNAs were extracted from cells that were or were not subjected to treatment. The aforementioned DATAS variant (preparation of biotinylated ss cDNA, cross hybridizations in liquid phase, application of a magnetic field to separate the species, RNase H digestion) was effected with untreated cells in the reference condition (or condition A) and with treated cells in the test condition (or condition B) (FIG. 9). As the extracted RNAs were not radiolabeled, the RNAs generated by RNase H digestion were visualized by carrying out an exchange reaction to replace the RNA 5′ phosphate with a labeled phosphate, by means of T4 polynucleotide kinase and gamma-P^32ATP. These labeled products were then loaded on an acrylamide/urea gel and analyzed by exposure using an Instant Imager (Packard Instruments).

## CCCCCCCCCCCCCC(=O)O[C@@H]1[C@@H](C)[C@@]2(O)[C@@H](C=C(CO)C[C@]3(O)C(=O)C(C)=C[C@@H]23)[C@@H]2C(C)(C)[C@]12OC(C)=O [PMA, phorbol 12-myristate 13-acetate]
HepG2 cells [1]; HepG2 cells, trypan blue, MTT, Cell Death ELISA, 18 h and 40 h, stated concentration well below measured IC50
  IC50 in cytotoxicity and apoptosis tests: > 0.05 µg/mL

## CC[C@@]1(O)C(=O)OCc2c1cc1n(c2=O)Cc2cc3ccccc3nc2-1 [camptothecin]
bcl-X isoforms; camptothecin 1 μg/ml
  bcl-X isoform pattern: induces the appearance of a new bcl-X isoform
[2]
  expression of isoform MACH-α1: decrease
  expression of isoform MACH-α3: increase
[3]; HepG2 hepatocyte cells
  IC50: > 1 µg/mL
FASR isoforms; camptothecin 1 μg/ml
  fas receptor isoform pattern: induces a decrease in the wild type form of the fas receptor, replaced by expression of a shorter isoform which may correspond to Fas ΔTM

## CCO [ethanol]
bcl-X isoforms; ethanol 0.1 M
  bcl-X isoform pattern: induces the disappearance of bcl-x which is replaced by a shorter isoform
HepG2 cells [4]
  RNA splicing signatures (A/B and B/A signals versus A/A): can induce a reprogramming of RNA splicing events
[3]
  IC50: > 100 mM
HepG2 cells [1]
  cytotoxicity and DNA degradation: signs of cytotoxicity and DNA degradation via internucleosomal fragmentation
FASR isoforms; ethanol 0.1 M
  fas receptor isoform pattern: induces an increase in the long wild type form of the fas receptor at the expense of the shorter isoform
